Measured values as given in patent publication US5383848A, “Iontophoretic administration of drugs” (Gensia, Inc., priority 1991, dated 1995).
Entries after “also recorded” stand apart in the source; their conditions may differ.

Test system: elevated heart rate
Test: In vivo dog experiments: heart rate offset after iontophoretic ESA drug with pretreatment (Example A)
Parameters: species or system labrador dogs
Settings: for Offset Slope Component (0-5) min: 0-5 min after heart rate begins to decline; for Offset Slope Component (5-10) min: 5-10 min after decline begins; for Offset Slope Component (10-30) min: 10-30 min after decline begins; for Change in Heart Rate (peak minus baseline) / Peak Heart Rate: Table II; for Total time (startup) thru offset plateau: w/in 10 bpm of baseline / t 1/2 of elevated heart rate decay: Table IV; for Onset Slope: baseline at onset time to peak heart rate; for Offset time: drug delivery stopped until within 20 bpm of baseline; for Offset Slope: drug shut-off to 20 bpm above baseline; for Delay: drug shut-off to start of heart rate decline; for t 1/2 of elevated heart rate decay: exponential fit; for Onset time: start of delivery to start of increase in heart rate; for Time Start Decline: time when elevated heart rate began to decline

CC(COc1ccccc1)N(CCCl)Cc1ccccc1 (stereo not drawn) [Phenoxybenzamine]
Offset Slope Component (0-5) min (listed as 18): -4.20 beats per minute per minute | Offset Slope Component (0-5) min (listed as 19): -4.90 beats per minute per minute | Offset Slope Component (5-10) min (listed as 18): 0.02 beats per minute per minute | Offset Slope Component (5-10) min (listed as 19): -2.00 beats per minute per minute | Offset Slope Component (10-30) min (listed as 18): -0.53 beats per minute per minute | Offset Slope Component (10-30) min (listed as 19): -1.80 beats per minute per minute | Change in Heart Rate (peak minus baseline) (listed as 18): 57 bpm | Peak Heart Rate (listed as 18): 117 bpm | Change in Heart Rate (peak minus baseline) (listed as 19): 79 bpm | Peak Heart Rate (listed as 19): 149 bpm | Total time (startup) thru offset plateau: w/in 10 bpm of baseline (listed as 18): 60 min | Total time (startup) thru offset plateau: w/in 10 bpm of baseline (listed as 19): 48 min | Onset Slope (listed as 18): 3.70 beats per minute per minute | Onset Slope (listed as 19): 13.90 beats per minute per minute | Offset time (listed as 18): 30.00 min | Offset time (listed as 19): 25.80 min | Offset Slope (listed as 18): -0.80 beats per minute per minute | Offset Slope (listed as 19): -2.30 beats per minute per minute | Delay (listed as 18): 10.00 min | Delay (listed as 19): 3.50 min | t 1/2 of elevated heart rate decay (listed as 18): 16.96 min | t 1/2 of elevated heart rate decay (listed as 19): 11.52 min | Reduction in offset time (iontophoretic pre-delivery): found effective when pre-delivered iontophoretically; also recorded: also reduce offset time | Onset time (listed as 18): 18.00 min | Onset time (listed as 19): 7.40 min | Time Start Decline (listed as 18): 28.00 min | Time Start Decline (listed as 19): 22.00 min
